What was measured:
B16 melanoma 4A5 cell = experiment: Whitening test: theophylline-induced melanine production in B16 melanoma 4A5 cells; format: cell-based, mouse; settings: for Whitening effect (melanine production suppressing rate): sample at a concentration of 100 μM or less, theophylline-induced melanine production, 3 days culture, N=4;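 for Whitening effect (melanine production suppressing rate): grades: ± under 20% + 20-40% ++ 40-70% +++ 70-100% suppression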
Protocol: As a test for a whitening effect, evaluation of the action of B16 melanoma 4A5 cell on theophylline-induced melanine production was carried out on an ascorbic acid derivative of the present invention, according to the following procedure. The same evaluation was carried out also on ascorbic acid, known compounds: ascorbic acid salts, and ascorbic acid derivatives, as comparison. The results are shown in Tables 38 to 40. • (1) B16 mouse melanoma 4A5 strain was sowed onto a 48-well plate at a cell density of 2.0×10^4 cells/well. • (2) Culturing was performed for 24 hours with Dulbecco's Modified Eagle's medium (manufactured by SIGMA. Hereinafter, abbreviated as D-MEM) containing 10% fetal bovine serum (manufactured by Roshe Diagnostics). Then, it was changed to 0.2 mM theophylline and a 10% fetal bovine serum-containing D-MEM which contains a sample of given concentration. • (3) After culturing for 3 days in the co-existence of a sample, the medium was removed using an aspirator. Then, after distilled water was added, cells were broken by an ultrasonic wave. • (4) Thereafter, the amount of protein was determined using BCA protein assay kit (manufactured by PIERCE), and the produced amount of melanine was measured by an alkali solubilizing method. To the cell-destructed solution was added sodium hydroxide so as to give a final concentration of 2N and the mixture was dissolved by heating (60° C., 15 minutes), then, the absorbance at 450 nm was measured using a micro plate reader. The melanine amount was calculated from a calibration curve made using synthetic melanine (SIGMA) as a standard. The melanine amount per unit protein was calculated by dividing the melanine amount by the protein amount. • (5) The melanine production suppressing rate was calculated according to the following formula. Melanine production suppressing rate (%)=[1−(A−B)/(C−B)]×100 [wherein, A represents the melanine amount per unit protein (g/g) in adding a sample, B represents the melanine amount per unit protein (g/g) in the normal group, and C represents the melanine amount per unit protein (g/g) in the control group.]
In the following Tables, the melanine production suppressing rate in measuring a sample at a concentration of 100 μM or less is expressed as described below. The measurement was carried out at N=4.

[1] = tested on: Normal human dermal fibroblasts; experiment: Collagen production of human fibroblast (Sircol collagen assay, 100 μM, 48 hours); format: cell-based; settings: cultured 48 hours; for Collagen production promoting effect (collagen production amount, % of control group): N=4; for activity at 100 µM: Homo sapiens, Fibroblast, N=4, read-out: Collagen production promoting effect (collagen production amount, % of control group)
Protocol: Normal human dermal fibroblasts were regulated with a 10% (v/v) fetal bovine serum (manufactured by Roshe Diagnostics)-containing D-MEM so as to give a cell density of 2.5×10^4 cells/well, then, pre-incubation for 24 hours was performed on a 96-well plate. After the medium was removed, a sample regulated with a 5% (v/v) fetal bovine serum-containing D-MEM to a concentration of 100 μM was added to each well, then, cultured for 48 hours under 37° C. and 5% CO2. After completion of culturing, the amount of free collagen was measured using Sircol collagen assay kit (manufactured by Biocolor). The measurement was carried out at N=4.
The collagen production amount in measuring a sample at a concentration of 100 μM was compared with the control group, and the results thereof (% value when the control group is 100%) are shown in Tables 44 and 45 based on the following standard.

| Compound | Whitening effect (melanine production suppressing rate) (B16 melanoma 4A5 cell) | further results |
| --- | --- | --- |
| CCCCCCCOC1=C(OCC(O)CO)[C@@H]([C@@H](O)CO)OC1=O (stereo partly drawn) [Example 59] | ++ (40 to 70%:++) | – |
| C=CCOC1=C(OCC(O)COc2ccccc2)[C@@H]([C@@H](O)CO)OC1=O (stereo partly drawn) [Example 55] | + (20 to 40%:+) | – |
| CCCCCCCCC(O)COC1=C(OCC)C(C(O)CO)OC1=O (stereo not drawn) [Example 98] | ++ (40 to 70%:++) | – |
| CCCCCCCCCCCCCCCCOCC(O)COC1=C(OCC(O)CO)C(=O)OC1C(O)CO (stereo not drawn) [Example 82] | ++ (40 to 70%:++) | – |
| 3-O-(2-hydroxydecyl)-2-O-butylglyceryl ascorbic acid [Example 28] | ++ (40 to 70%:++) | Collagen production promoting effect (collagen production amount, % of control group) [1]: + (100 to 200%:+) |
| CCOCC(O)COC1=C(O)C(=O)OC1C(O)CO (stereo not drawn) [Example 7, 3-O-ethylglyceryl ascorbic acid] | + (20 to 40%:+) | – |
| CCCCCCCCCCCOC1=C(OCC(O)CO)[C@@H]([C@@H](O)CO)OC1=O (stereo partly drawn) [Example 62] | ++ (40 to 70%:++) | – |
| CCCCOC1=C(OCC(O)CO)[C@@H]([C@@H](O)CO)OC1=O (stereo partly drawn) [Example 57] | + (20 to 40%:+) | Collagen production promoting effect (collagen production amount, % of control group) [1]: + (100 to 200%:+) |
| CCCCCCOC1=C(OCC(O)COCCCC)[C@@H]([C@@H](O)CO)OC1=O (stereo partly drawn) [Example 69] | +++ (70 to 100%:+++) | – |
| CCCCCCCCCCCCCCCCOC1=C(OCC(O)CO)[C@@H]([C@@H](O)CO)OC1=O (stereo partly drawn) [Example 15, 3-O-glyceryl-2-O-hexadecyl ascorbic acid] | ++ (40 to 70%:++) | – |
| O=C1O[C@H]([C@@H](O)CO)C(OCC(O)COc2ccccc2)=C1O (stereo partly drawn) [Example 44] | – | Collagen production promoting effect (collagen production amount, % of control group) [1]: + (100 to 200%:+) |
| CCCCCCCCCOC1=C(OCC(O)CO)[C@@H]([C@@H](O)CO)OC1=O (stereo partly drawn) [Example 60] | +++ (70 to 100%:+++) | – |
| CCCCOCC(O)COC1=C(OCC)C(=O)O[C@@H]1[C@@H](O)CO (stereo partly drawn) [Example 68] | + (20 to 40%:+) | – |
| O=C1OC(C(O)CO)C(OC2CCCCC2O)=C1O (stereo not drawn) [compound 11, 3-O-(2-hydroxycyclohexyl) ascorbic acid] | + (20 to 40%:+) | activity at 100 µM [1]: 100 to 200% |
| CCCCCCCCC(O)COC1=C(OCC(O)CO)C(=O)OC1C(O)CO (stereo not drawn) [Example 83] | + (20 to 40%:+) | Collagen production promoting effect (collagen production amount, % of control group) [1]: + (100 to 200%:+) |
| CCCCCCOC1=C(OCC(O)CO)[C@@H]([C@@H](O)CO)OC1=O (stereo partly drawn) [Example 58] | ++ (40 to 70%:++) | – |
| CCCCCCCCCCCCOC1=C(OCC(O)COCCCC)[C@@H]([C@@H](O)CO)OC1=O (stereo partly drawn) [Example 71] | + (20 to 40%:+) | – |
| 3-O-dodecylglyceryl-2-O-octylglyceryl ascorbic acid [Example 26] | ++ (40 to 70%:++) | – |
| CCCCCCCCOCC(O)COC1=C(OCC(O)COCCCCCCCC)C(C(O)CO)OC1=O (stereo not drawn) [Example 91] | + (20 to 40%:+) | – |
| CCCCCCCCCCCCCOC1=C(OCC(O)CO)[C@@H]([C@@H](O)CO)OC1=O (stereo partly drawn) [Example 64] | ++ (40 to 70%:++) | – |
| CCCCCCCCCCCCOC1=C(OCC(O)CO)[C@@H]([C@@H](O)CO)OC1=O (stereo partly drawn) [Example 63] | ++ (40 to 70%:++) | – |
| CCCCOCC(O)COC1=C(O)[C@@H]([C@@H](O)CO)OC1=O (stereo partly drawn) [Example 48] | +++ (70 to 100%:+++) | Collagen production promoting effect (collagen production amount, % of control group) [1]: + (100 to 200%:+) |

| Compound | Whitening effect (melanine production suppressing rate) (B16 melanoma 4A5 cell) | further results |
| --- | --- | --- |
| O=C1O[C@H]([C@@H](O)CO)C([O-])=C1O.[Na+] [sodium ascorbate, reference compound] | ± (<20%:±) | – |
| CCOCC(O)COC1=C(OCC)C(=O)O[C@@H]1[C@@H](O)CO (stereo partly drawn) [Example 66] | + (20 to 40%:+) | Collagen production promoting effect (collagen production amount, % of control group) [1]: + (100 to 200%:+) |
| CCCCCCCCOCC(O)COC1=C(OCCCCCCCC)C(=O)O[C@@H]1[C@@H](O)CO (stereo partly drawn) [Example 73] | + (20 to 40%:+) | – |
| CCCCCCCCCCOC1=C(OCC(O)CO)[C@@H]([C@@H](O)CO)OC1=O (stereo partly drawn) [Example 61] | +++ (70 to 100%:+++) | – |
| CCCCCCCCCCCCOCC(O)COC1=C(OCC(O)COCCCC)C(C(O)CO)OC1=O (stereo not drawn) [Example 90] | + (20 to 40%:+) | Collagen production promoting effect (collagen production amount, % of control group) [1]: + (100 to 200%:+) |
| O=C1OC(C(O)CO)C(OCC(O)COc2ccccc2)=C1OCC(O)COc1ccccc1 (stereo not drawn) [Example 88, 2,3-di-O-phenylglyceryl ascorbic acid] | ++ (40 to 70%:++) | Collagen production promoting effect (collagen production amount, % of control group) [1]: + (100 to 200%:+) |
| OC[C@H]1O[C@@H](Oc2ccc(O)cc2)[C@H](O)[C@@H](O)[C@@H]1O [arbutin] | ++ (40 to 70%:++) | – |
| O=C1OC(C(O)CO)C(OCC(O)CO)=C1OCc1ccccc1 (stereo not drawn) [Example 17, 3-O-glyceryl-2-O-benzyl ascorbic acid] | + (20 to 40%:+) | activity at 100 µM [1]: 100 to 200% |
| O=C1OC(C(O)CO)C(OC(CO)c2ccccc2)=C1O (stereo not drawn) [compound 12, 3-O-(2-hydroxy-1-phenylethyl)ascorbic acid] | ++ (40 to 70%:++) | – |
| CCCCCCCCCCCCCCCCOCC(O)COC1=C(OCC(O)COCCCCCCCC)C(C(O)CO)OC1=O (stereo not drawn) [Example 92] | ++ (40 to 70%:++) | Collagen production promoting effect (collagen production amount, % of control group) [1]: + (100 to 200%:+) |
| CCOCC(O)COC1=C(O)C(C(O)CO)OC1=O (stereo not drawn) [Example 13, 2-O-ethylglyceryl ascorbic acid] | + (20 to 40%:+) | – |
| CC=CCOC1=C(OCC(O)COCCCC)[C@@H]([C@@H](O)CO)OC1=O (stereo partly drawn) [Example 53] | + (20 to 40%:+) | – |
| CCOC1=C(OCC(O)CO)C(=O)OC1C(O)CO (stereo not drawn) [Example 96] | + (20 to 40%:+) | – |
| 3-O-ethylglyceryl-2-O-butyl ascorbic acid [Example 18] | – | Collagen production promoting effect (collagen production amount, % of control group) [1]: + (100 to 200%:+) |
| CCCCCCCCCCCCCCCCOCC(O)COC1=C(OCC(O)CO)C(C(O)CO)OC1=O (stereo not drawn) [Example 86] | ++ (40 to 70%:++) | – |
| CCCCCCCCCCCCOCC(O)COC1=C(OCC(O)CO)C(C(O)CO)OC1=O (stereo not drawn) [Example 85] | ++ (40 to 70%:++) | – |
| CCCCCCCCC(O)COC1=C(OCCCC)C(=O)O[C@@H]1[C@@H](O)CO (stereo partly drawn) [Example 79] | +++ (70 to 100%:+++) | – |
| CCCCCCCCCCCCCCOC1=C(OCC(O)CO)[C@@H]([C@@H](O)CO)OC1=O (stereo partly drawn) [Example 65, 3-O-glyceryl-2-O-tetradecyl ascorbic acid] | ++ (40 to 70%:++) | whitening effect (in words) (B16 melanoma 4A5 cell; conclusion from Tables 38-40, compared with known ascorbic acid derivatives): excellent whitening effect |
| CCCCCCCCCCCCCCCCOC1=C(OCC(O)COCCCC)[C@@H]([C@@H](O)CO)OC1=O (stereo partly drawn) [Example 72] | ++ (40 to 70%:++) | – |
| CCCCCCCCCCCCCCCCOCC(O)COC1=C(OCCCCCCCC)C(=O)O[C@@H]1[C@@H](O)CO (stereo partly drawn) [Example 77] | + (20 to 40%:+) | – |
| CCCCCCCCOC1=C(OCC(O)COCCCC)[C@@H]([C@@H](O)CO)OC1=O (stereo partly drawn) [Example 70] | ++ (40 to 70%:++) | – |
